Laboratory results as given in patent US20260102413A1, “TREATING PAIN ASSOCIATED WITH CENTRAL SENSITIZATION” (Medicon Pharmaceuticals, Inc., priority 2022, published 2026).
Each block holds one compound with its values, some of them ahead of it.

Tests used:
[1] = tested on: mice with chronic constriction injury of the left sciatic nerve (PTPN); assay: von Frey PWT, chronic constriction injury (CCI) model of PTPN, topical compounds; format: in vivo, mouse; details: for PWT, g mean ± SEM, Day 14: NOSH-1, LXIX, LXX 5% on left hind paw 3x/day 14 days; for PWT, g Mean ± SEM, Baseline: group value following ligation, prior to treatment
Description: The PWT test was performed following ligation, but prior to treatment to determine baseline values. The PWT was then further measured on day 14.

[2] = tested on: mice with NTG-induced migraine; assay: von Frey PWT, NTG-induced migraine model, oral or intraperitoneal compounds; format: in vivo, mouse; details: oral 30 min after NTG: PS 50, sulindac 33, PN 65, naproxen 35 mg/kg; 30 min after administration
Description: Phosphonaproxen (Formula VIII), and its parent compound, naproxen, were administered orally to each mouse group. All compounds were administered at equimolar doses. In particular, phosponaproxen was administered at 65 mg/kg, and naproxen was administered at 35 mg/kg, 30 minutes after NTG administration. The response of mechanical allodynia was tested 30 minutes after administration.

[3] = tested on: mice with paclitaxel-induced CIPN; assay: von Frey PWT, paclitaxel CIPN model, orally administered compounds; format: in vivo, mouse; details: for PWT, g: 100 mg/kg oral gavage 3x/day; for PWT: oral gavage 3x/day 6 days: ibuprofen 40, PI 80, PIA 80, PGI 60 mg/kg, day 6
Source text: CIPN was induced in mice with chemotherapeutic agents using established protocols (Carozzi et al, 2010; Currie et al, 2019; Eldridge et al, 2020). […] This dosing regimen of paclitaxel produces pain associated with CIPN with time courses that are similar to those of pain after paclitaxel administration in cancer patients.
Group 1: naïve mice (i.e. no paclitaxel, n=8) • 2. Group 2: paclitaxel only (n=8) • 3. Group 3: paclitaxel plus vehicle (n=8) • 4. […] Group 5: paclitaxel pluse sulindac (n=8)
The PWT test was performed on day 7.
Phospho-naproxen (PN) and naproxen were given by oral gavage, three times a day for 7 days. Their doses were as follows: PN, 65 mg/kg; naproxen, 35 mg/kg (equimolar to PN). The response of mechanical allodynia to phospho-naproxen (PN) and naproxen was tested on day 7.
(§1) This dosing regimen of paclitaxel produces pain associated with CIPN with time courses that are similar to those of pain after paclitaxel administration in cancer patients.
Phospho-ibuprofen (PI) (Formula III), phospho-glycerol-ibuprofen (PGI) (Formula LXXI), phospho-ibuprofen-amide (PIA) (Formula XI), and ibuprofen were given by oral gavage, three times a day for 6 days. Their doses were as follows: ibuprofen, 40 mg/kg; PI, 80 mg/kg; PIA, 80 mg/kg; all three were equimolar.
The response of mechanical allodynia to these compounds was tested on day 6, using the PWT test.
as §1
NO-sulindac (Formula XLIV), HS-sulindac (Formula XXXIV), platinum-sulindac (Formula LXVII), and NOSH-1 (Formula LIX) were given by oral gavage, three times a day throughout the study period. Their doses were all 100 mg/kg.
The response of mechanical allodynia to these compounds was tested on the days set out in the table below, via the PWT test.
LXIX was given by oral gavage, once a day for 14 days at a dose of 100 mg/kg.
The response of mechanical allodynia to these compounds was tested on day 14, via the PWT test.

[4] = tested on: mice with paclitaxel-induced neuropathic pain (CIPN); assay: von Frey paw withdrawal threshold (mechanical allodynia), paclitaxel-induced CIPN / central sensitization, treatment of established pain, topical test compounds; format: in vivo, mouse; details: for PWT: naproxen 2.4%, aspirin […], ibuprofen 2.5% topical both hind paws 3x/day 14 days; for Paw-withdrawal threshold, g Mean ± SEM, Day 0: group value after paclitaxel, before study drug
Description: Paw withdrawn, licking or shaking were considered positive responses.
(§2) The first doses were administered 5 days after the last administration of paclitaxel (i.e., at day 0).
The PWT test was performed prior to the administration of paclitaxel (day −8) to establish the threshold in mice without neuropathic pain associated with CIPN (the value shown is an average of the PWT in all groups at day −8).
Pain associated with CIPN was established in line with the experiments disclosed herein. Mice were treated with naproxen 2.4% (equimolar to PN 5%), aspirin 1.7% (equimolar to PA2 5%); or ibuprofen 2.5% (equimolar to PI 5%) or vehicle applied topically to both hind paws 3×/day for 14 days.
CIPN was induced in mice with chemotherapeutic agents using established protocols (Carozzi et al, 2010; Currie et al, 2019; Eldridge et al, 2020).
The first doses were administered 1 day after the last administration of paclitaxel (i.e., at day 0).
as §2
The PWT test was performed on day 21, at the end of the experiment, but was also additionally determined on day 14 for LXIX.

[5] = tested on: mice with NTG-induced chronic migraine; assay: von Frey PWT, NTG-induced chronic migraine model; format: in vivo, mouse; details: for PWT, g Mean ± SEM, Day 12 (pre-treatment): day 12 after first NTG dose, before compound administration; for PWT, g Mean ± SEM, Baseline: group baseline prior to NTG (Example 17)
Source text: The NTG-induced chronic migraine model was used as described previously.

[6] = tested on: STZ-diabetic rats; format: in vivo, rat; details: rat, in vivo
Source text: The animal model corresponds to that used for Example 4, but using a prevention protocol. As in Example 4, the outcome measure, determining the effect of the treatment on the prevention of mechanical allodynia, was the PWT test, using von Frey filaments. The measurements were taken at day −3, before treatment or induction of neuropathic pain associated with DPN, and again at the end of the study period (day 28).
The rats were randomised into treatment groups as follows, all having an average body weight of about 225 g. • 1. Group 1: naïve rats (n=6) • 2. Group 2: STZ only (n=8) • 3. Group 3: STZ plus vehicle (n=8) • 4. […] Group 5: STZ plus sulindac 0.7% (n=8) • 6. Group 6: STZ plus lidocaine cream 5% (n=8)
Each treatment group was subjected to a PWT assessment at day −3 in order to determine the baseline of mechanical allodynia.
For those rats in the lidocaine treatment group, lidocaine cream was applied only once to both hind paws of the rats 30 min before the final PWT measurement on day 28. On day 0, neuropathic pain associated with DPN was induced with the administration of STZ, and the blood glucose was checked on day 3.

[7] = drug levels in proximal and distal half of the sciatic nerve after topical PS; format: in vivo, mouse; details: mouse, in vivo
Description: In a separate experiment we studied 8 mice with paclitaxel-induced PN treated with PS 8% ointment 3×/d for 2 wks. Mice were euthanized as above 30 minutes after the last dose of PS. From these mice we harvested both sciatic nerves dividing each into proximal and distal halves, and combined the corresponding halves of every two animals for assay of drug levels.

[8] = tested on: mice with chronic constriction injury (PTPN); assay: von Frey PWT, CCI model of PTPN, orally administered compounds; format: in vivo, mouse; details: for PWT, g Mean ± SEM: oral 3x/day 14 days: PI 80, PIA 80, ibuprofen 40 mg/kg, day 14
Description: Phospho-ibuprofen (PI) (Formula III), phospho-ibuprofen-amide (PIA) (Formula XI), ibuprofen and vehicle control were all administered orally, three times a day for 14 days. Their doses were as follows: PI 80 mg/kg, PIA 80 mg/kg, ibuprofen 40 mg/kg (all three are equimolar). […] Group 1: vehicle (n=5-8) • 2. Group 2: ibuprofen (n=5-8) • 3. Group 3: phospho-ibuprofen (PI) (n=5-8) • 4. Group 4: phospho-ibuprofen-amide (PIA) (n=5-8)

[9] = tested on: mice with paclitaxel-induced CIPN; assay: thermal allodynia (paw withdrawal latency, radiant heat), paclitaxel CIPN model; format: in vivo, mouse; details: NO-sulindac, HS-sulindac 5% topical 3x/day
Description: Group 3: paclitaxel pluse sulindac (n=8)
Thermal allodynia was also determined for the mice study groups below (with 8 mice per group): • 1. Group 1: naïve mice (i.e. no paclitaxel) • 2. Group 2: paclitaxel only • 3. Group 3: paclitaxel plus vehicle • 4. Group 4: paclitaxel plus NO-sulindace • 5. Group 5: paclitaxel plus thiol-sulindac

Compound: CC(C(=O)Oc1ccc(C(N)=S)cc1)c1cccc(C(=O)c2ccccc2)c1 (stereo not shown) [LXX]
PWT, g mean ± SEM, Day 14 [1]: 1.28 ± 0.29 g
PWT, g Mean ± SEM, Baseline [1]: 0.58 ± 0.07 g

Compound: COc1ccc2cc([C@H](C)C(=O)O)ccc2c1 [Naproxen, naproxen, reference compound]
PWT, g Mean ± SEM [2]: 0.56 ± 0.02 g
PWT, g Mean ± SEM ([3]; paclitaxel 8 mg/kg x4, oral gavage 3x/day 7 days: PS 50, sulindac 33, PN 65, naproxen 35 mg/kg, day 7): 0.53 ± 0.05 g
PWT [4]: 0.61 ± 0.11 g

Compound: COc1ccc2cc(C(C)C(=O)Oc3ccc(C(N)=S)cc3)ccc2c1 (stereo not shown) [LXIX]
PWT, g Mean ± SEM ([3]; LXIX 100 mg/kg oral gavage once a day 14 days, day 14): 0.93 ± 0.14 g
PWT, g mean ± SEM, Day 14 [1]: 1.35 ± 0.23 g
PWT, g Mean ± SEM, Baseline [1]: 0.55 ± 0.09 g
PWT, g Mean ± SEM ([4]; LXIX 5% topical both hind paws 3x/day, Day 14): Day 14 = 0.86 ± 0.10 g
PWT, g Mean ± SEM ([4]; LXIX 5% topical both hind paws 3x/day, Day 21): Day 21 = 1.20 ± 0.14 g

Compound: CNS(=O)(=O)Cc1ccc2[nH]cc(CCN(C)C)c2c1 [Sumatriptan, sumatriptan]
PWT, g Mean ± SEM, Day 12 (pre-treatment) [5]: 0.57 ± 0.02 g
PWT, g Mean ± SEM, Baseline [5]: 1.90 ± 0.06 g

Compound: CCN(CC)CC(=O)Nc1c(C)cccc1C [lidocaine]
von Frey, gm mean ± SEM [6]: 34.3 ± 1.6 gm

Fold difference distal vs proximal [7]: 4.5
Compound: CC1=C(CC(=O)O)c2cc(F)ccc2/C1=C\c1ccc(S(C)(=O)=O)cc1 [sulindac sulfone]

Compound: platinum-sulindac [Pt-sulindac]
PWT, g ([3]; D 2): D 2 = 1.01 ± 0.17 g
PWT, g ([3]; D 4): D 4 = 1.03 ± 0.19 g
PWT, g ([3]; D 13): D 13 = 1.34 ± 0.07 g

Compound: O=C(CCCO[N+](=O)[O-])Oc1ccccc1C(=O)Oc1ccc(-c2cc(=S)ss2)cc1 [NOSH1, NOSH-aspirin]
PWT, g ([3]; D 2): D 2 = 0.93 ± 0.17 g
PWT, g ([3]; D 4): D 4 = 1.39 ± 0.15 g
PWT, g ([3]; D 13): D 13 = 1.33 ± 0.11 g
PWT, g mean ± SEM, Day 14 [1]: 2.00 ± 0.00 g
PWT, g Mean ± SEM, Baseline [1]: 0.60 ± 0.00 g

Compound: NO-aspirin
PWT, g Mean ± SEM ([4]; paclitaxel 8 mg/kg x4, 5% topical both hind paws 3x/day, Day 8): 1.47 ± 0.08 g

Compound: CCOP(=O)(OCC)OCC(COC(=O)c1ccccc1OC(C)=O)OP(=O)(OCC)OCC (stereo not shown) [glycero-phospho-aspirin II]
Paw-withdrawal threshold, g Mean ± SEM, Day 0 [4]: 0.66 ± 0.05 g
Paw-withdrawal threshold, g Mean ± SEM, Day 14 ([4]; mouse, in vivo): 0.69 ± 0.06 g

Compound: CCOP(=O)(OCC)OCCCCNC(=O)C(C)c1ccc(CC(C)C)cc1 (stereo not shown) [PIA, phosphoibuprofen-amide]
PWT [3]: 1.79 ± 0.40 g
PWT ([8]; PIA 80 mg/kg oral 3x/day, day 5): 1.43 ± 0.19 g
PWT, g Mean ± SEM [8]: 1.74 ± 0.12 g

Compound: CC(=O)Oc1ccccc1C(=O)O [Aspirin, aspirin, reference compound]
PWT [4]: 0.69 ± 0.10 g

Compound: CC(C)Cc1ccc(C(C)C(=O)O)cc1 (stereo not shown) [Ibuprofen, ibuprofen, reference compound]
PWT [3]: 0.53 ± 0.05 g
PWT, g Mean ± SEM [8]: 0.58 ± 0.02 g
PWT [4]: 0.60 ± 0.08 g

Compound: CCOP(=O)(OCC)OCCCCOC(=O)C(C)c1ccc(CC(C)C)cc1 (stereo not shown) [PI, phospho-ibuprofen]
PWT [3]: 1.41 ± 0.23 g
PWT, g Mean ± SEM [8]: 0.82 ± 0.07 g
PWT, g Mean ± SEM ([1]; PI, PN 5% on left hind paw 3x/day 14 days, day 14): 1.54 ± 0.19 g
Paw-withdrawal threshold, g Mean ± SEM, Day 0 [4]: 0.64 ± 0.05 g
Paw-withdrawal threshold, g Mean ± SEM, Day 14 ([4]; mouse, in vivo): 0.8 ± 0.07 g

Compound: CCOP(=O)(OCC)OCC(CNC(=O)C(C)c1ccc(CC(C)C)cc1)OP(=O)(OCC)OCC (stereo not shown) [PGIA, phospho-glycerol-ibuprofen-amide]
PWT, g Mean ± SEM ([4]; mouse, in vivo): 1.70 ± 0.25 g

Compound: CC1=C(CC(=O)Oc2ccc(-c3cc(=S)ss3)cc2)c2cc(F)ccc2/C1=C\c1ccc([S+](C)[O-])cc1 (stereo not shown) [HS-sulindac]
PWT, g ([3]; D 2): D 2 = 0.90 ± 0.09 g
PWT, g ([3]; D 4): D 4 = 1.10 ± 0.05 g
PWT, g ([3]; D 13): D 13 = 1.23 ± 0.06 g
PWL, sec Mean ± SEM [9]: 9.9 ± 0.6 s
PWT, g Mean ± SEM ([4]; paclitaxel 8 mg/kg x4, 5% topical both hind paws 3x/day 17 days): 0.99 ± 0.15 g

Compound: CCOP(=O)(OCC)OCC(COC(=O)C(C)c1ccc(CC(C)C)cc1)OP(=O)(OCC)OCC (stereo not shown) [PGI, phospho-glycerol-ibuprofen]
PWT [3]: 1.60 ± 0.11 g

Compound: CC1(C)O[C@@H]2[C@@H](CO[C@@]3(COS(N)(=O)=O)OC(C)(C)O[C@@H]23)O1 [Topiramate, topiramate]
PWT, g Mean ± SEM, Day 12 (pre-treatment) [5]: 0.60 ± 0.00 g
PWT, g Mean ± SEM, Baseline [5]: 2.40 ± 0.24 g
